Test results: patent publication US9879050B2, “Substituted urea depsipeptide analogs as activators of the CLPP endopeptidase” (priority 2013, dated 2018)
≈ marks a conversion by molar mass, not a printed value. Like-named read-outs stand apart in the source and are kept apart here.

What was measured:
[1] = from C[C@H]1C[C@@H](C(=O)O[C@@H](C)[C@H](NC(=O)OCc2ccccc2)C(=O)OCC(=O)c2ccccc2)N(C(=O)[C@H](C)NC(=O)[C@@H]2CCCCN2C(=O)[C@@H]2CCCN2C(=O)OC(C)(C)C)C1, amide bond, pentafluorophenyl ester (EDC·HCl/pentafluorophenol), then aq NaHCO3, DCM, 1.24 mM, 25.0 °C, 4 steps
S. aureus ATCC 29213 = assay: Minimal inhibitory concentration, microbroth dilution; type: cell-based
In short: (§1)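 Susceptibility testing used the CLSI dilution standard, with bacteria at ~10^5 cfu/mL exposed to a two-fold compound series beginning at 200 μM final. The endpoint is the lowest concentration showing no growth after overnight incubation (37 °C, aerobic).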

B. subtilis ATCC 23857 = assay: as above; type: cell-based
In short: as §1

S. aureus NRS70 = assay: as above; type: cell-based
In short: as §1

S. aureus USA 300 ΔClpP = assay: as above; type: cell-based, Staphylococcus aureus; details: ClpP inactivated strain
In short: as §1

S. pyogenes ATCC 700294 = assay: as above; type: cell-based
In short: (§2)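 Twofold serial dilutions in broth per CLSI M7-A7 microbroth dilution, incubated aerobically overnight at 37° C. MIC read visually as lowest concentration preventing bacterial growth.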

S. pneumoniae R6 = assay: as above; type: cell-based
In short: as §2

[2] = test system: Vero (kidney epithelial cells; ATCC CCL-81); assay: Cytotoxicity assay, CellTiter-Glo cell viability; type: cell-based; details: Vero cells, 72 hours
In short: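 Vero cells seeded overnight at 37 °C in DMEM with 10% FBS, then exposed to serial dilutions of compound for 72 h. Viability read by CellTiter-Glo luminescence; IC50 from duplicates, given as the range of two independent experiments.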

S. aureus USA 300 = assay: Minimal inhibitory concentration, microbroth dilution; type: cell-based
In short: as §1

[3] = Staphylococcus aureus, ATCC29213, read-out: Minimal Inhibitory Concentration S. aureus ATCC 29213
[4] = Bacillus subtilis, ATCC23857, read-out: Minimal Inhibitory Concentration B. subtilis ATCC 23857
[5] = Staphylococcus aureus, NRS70, read-out: Minimal Inhibitory Concentration S. aureus NRS70
[6] = Streptococcus pyogenes, ATCC700294, read-out: Minimal Inhibitory Concentration S. pyogenes ATCC 700294
[7] = Streptococcus pneumoniae, R6, read-out: Minimal Inhibitory Concentration S. pneumoniae R6
[8] = Staphylococcus aureus, USA300, read-out: Minimal Inhibitory Concentration S. aureus USA 300
[9] = Staphylococcus aureus, USA300; read-out: Minimal Inhibitory Concentration S. aureus USA 300
[10] = Staphylococcus aureus, ATCC29213; read-out: Minimal Inhibitory Concentration S. aureus ATCC 29213
[11] = Bacillus subtilis, ATCC23857; read-out: Minimal Inhibitory Concentration B. subtilis ATCC 23857
[12] = Staphylococcus aureus, NRS70; read-out: Minimal Inhibitory Concentration S. aureus NRS70
[13] = Streptococcus pyogenes, ATCC700294; read-out: Minimal Inhibitory Concentration S. pyogenes ATCC 700294
[14] = Streptococcus pneumoniae, R6; read-out: Minimal Inhibitory Concentration S. pneumoniae R6

| SMILES | ring closure, yield of all isomers [1] | MIC (S. aureus ATCC 29213; [3]) | MIC (B. subtilis ATCC 23857; [4]) | MIC (S. aureus NRS70; [5]) | Minimal Inhibitory Concentration S. aureus USA 300 ΔClpP (S. aureus USA 300 ΔClpP) | MIC (S. pyogenes ATCC 700294; [6]) | MIC (S. pneumoniae R6; [7]) | IC50 [2] | MIC (S. aureus USA 300; [8]) | MIC (S. aureus USA 300; [9]) | MIC (S. aureus ATCC 29213; [10]) | MIC (B. subtilis ATCC 23857; [11]) | MIC (S. aureus NRS70; [12]) | MIC (S. pyogenes ATCC 700294; [13]) | MIC (S. pneumoniae R6; [14]) |
| --- | --- | --- | --- | --- | --- | --- | --- | --- | --- | --- | --- | --- | --- | --- | --- |
| C[C@H]1C[C@H]2C(=O)O[C@@H](C)[C@H](NC(=O)OCc3ccccc3)C(=O)N3CCC[C@H]3C(=O)N3CCCC[C@H]3C(=O)N[C@@H](C)C(=O)N2C1 | 74% | – | – | – | – | – | – | – | – | – | – | – | – | – | – |
| Cc1ccc(NC(=O)N[C@@H](Cc2cc(F)cc(F)c2)C(=O)N[C@@H]2C(=O)N3C[C@H](O)CC3C(=O)N(C)[C@@H](C)C(=O)N[C@@H](C)C(=O)N3C[C@@H](C)CC3C(=O)O[C@H]2C)cc1 (stereo partly drawn) [Compound 31, (S)-3-(3,5-Difluorophenyl)-N-((2S,6S,9S,11aS,13R,17S,18S,20aS)-13-Hydroxy-2,6,9,10,18-Pentamethyl-5,8,11,16,20-Pentaoxohexadecahydro-1H,5H,16H-Dipyrrolo[2,1-C:2′,1′-L][1]Oxa[4,7,10,13]Tetraazacyclohexadecin-17-Yl)-2-(3-(P-Tolyl)Ureido)Propanamide] | – | 0.39 µM (≈ 0.311 µg/mL) | 0.39 µM (≈ 0.311 µg/mL) | 0.39 µM (≈ 0.311 µg/mL) | >200 µM | 0.78 µM (≈ 0.622 µg/mL) | 0.195 µM (≈ 0.156 µg/mL) | > 100 µM | – | – | – | – | – | – | – |
| Cc1ccc(NC(=O)N[C@@H](Cc2cc(F)cc(F)c2)C(=O)N[C@@H]2C(=O)N3CCCC3C(=O)N(C)[C@@H]([C@H](C)O)C(=O)N[C@@H](C)C(=O)N3C[C@@H](C)CC3C(=O)O[C@H]2C)cc1 (stereo partly drawn) [Compound 35, (S)-3-(3,5-Difluorophenyl)-N-((2S,6S,9S,11aS,17S,18S,20aS)-9-((S)-1-Hydroxyethyl)-2,6,10,18-Tetramethyl-5,8,11,16,20-Pentaoxohexadecahydro-1H,5H,16H-Dipyrrolo[2,1-C:2′,1′-L][1]Oxa[4,7,10,13]Tetraazacyclohexadecin-17-Yl)-2-(3-(P-Tolyl)Ureido)Propanamide] | – | 0.2 µM (≈ 0.162 µg/mL) | 0.2 µM (≈ 0.162 µg/mL) | 0.1 µM (≈ 0.0812 µg/mL) | 200 µM | 0.39 µM (≈ 0.317 µg/mL) | 0.049 µM (≈ 0.0398 µg/mL) | 55.7 ± 3.6 µM | 0.2 µM (≈ 0.162 µg/mL) | – | – | – | – | – | – |
| CCc1ccc(NC(=O)N[C@@H](Cc2cc(F)cc(F)c2)C(=O)N[C@@H]2C(=O)N3CCCC3C(=O)N(C)[C@@H]([C@H](C)O)C(=O)N[C@@H](C)C(=O)N3C[C@@H](C)CC3C(=O)O[C@H]2C)cc1 (stereo partly drawn) [Compound 37, (S)-3-(3,5-Difluorophenyl)-2-(3-(4-Ethylphenyl)Ureido)-N-((2S,6S,9S,11aS,17S,18S,20aS)-9-((S)-1-Hydroxyethyl)-2,6,10,18-Tetramethyl-5,8,11,16,20-Pentaoxohexadecahydro-1H,5H,16H-Dipyrrolo[2,1-C:2′,1′-L][1]Oxa[4,7,10,13]Tetraazacyclohexadecin-17-Yl)Propanamide] | – | – | – | – | 100 µM | – | – | – | – | 0.1 µM (≈ 0.0826 µg/mL) | 0.1 µM (≈ 0.0826 µg/mL) | 0.05 µM (≈ 0.0413 µg/mL) | 0.1 µM (≈ 0.0826 µg/mL) | 0.1 µM (≈ 0.0826 µg/mL) | 0.024 µM (≈ 0.0198 µg/mL) |
| Cc1ccc(NC(=O)N[C@@H](Cc2cc(F)cc(F)c2)C(=O)N[C@@H]2C(=O)N3CCCC3C(=O)N(C)[C@@H]([C@H](C)O)C(=O)N[C@@H](C)C(=O)N3C[C@H](C)CC3C(=O)O[C@H]2C)cc1 (stereo partly drawn) [Compound 38, (S)-3-(3,5-Difluorophenyl)-N-((2R,6S,9S,11aS,17S,18S,20aS)-9-((S)-1-Hydroxyethyl)-2,6,10,18-Tetramethyl-5,8,11,16,20-Pentaoxohexadecahydro-1H,5H,16H-Dipyrrolo[2,1-C:2′,1′-L][1]Oxa[4,7,10,13]Tetraazacyclohexadecin-17-Yl)-2-(3-(P-Tolyl)Ureido)Propanamide] | – | 0.05 µM (≈ 0.0406 µg/mL) | 0.05 µM (≈ 0.0406 µg/mL) | 0.05 µM (≈ 0.0406 µg/mL) | 200 µM | 0.1 µM (≈ 0.0812 µg/mL) | 0.02 µM (≈ 0.0162 µg/mL) | 46.1 ± 5.5 µM | 0.1 µM (≈ 0.0812 µg/mL) | – | – | – | – | – | – |
| C[C@@H]1CC2C(=O)O[C@@H](C)[C@H](NC(=O)[C@H](Cc3cc(F)cc(F)c3)NC(=O)Nc3ccc(OC(F)(F)F)cc3)C(=O)N3CCCC3C(=O)N(C)[C@@H]([C@H](C)O)C(=O)N[C@@H](C)C(=O)N2C1 (stereo partly drawn) [Compound 41, (S)-3-(3,5-Difluorophenyl)-N-((2R,6S,9S,11aS,17S,18S,20aS)-9-((S)-1-Hydroxyethyl)-2,6,10,18-Tetramethyl-5,8,11,16,20-Pentaoxohexadecahydro-1H,5H,16H-Dipyrrolo[2,1-C:2′,1′-L][1]Oxa[4,7,10,13]Tetraazacyclohexadecin-17-Yl)-2-(3-(4-(Trifluoromethoxy)Phenyl)Ureido)Propanamide] | – | – | – | – | 50 µM | – | – | – | – | 0.02 µM (≈ 0.0176 µg/mL) | 0.02 µM (≈ 0.0176 µg/mL) | 0.01 µM (≈ 0.00882 µg/mL) | 0.01 µM (≈ 0.00882 µg/mL) | 0.1 µM (≈ 0.0882 µg/mL) | 0.02 µM (≈ 0.0176 µg/mL) |
| CCc1ccc(NC(=O)N[C@@H](Cc2cc(F)cc(F)c2)C(=O)N[C@@H]2C(=O)N3CCCC3C(=O)N(C)[C@@H]([C@H](C)O)C(=O)N[C@@H](C)C(=O)N3C[C@H](C)CC3C(=O)O[C@H]2C)cc1 (stereo partly drawn) [Compound 42, (S)-3-(3,5-Difluorophenyl)-2-(3-(4-Ethylphenyl)Ureido)-N-((2R,6S,9S,11aS,17S,18S,20aS)-9-((S)-1-Hydroxyethyl)-2,6,10,18-Tetramethyl-5,8,11,16,20-Pentaoxohexadecahydro-1H,5H,16H-Dipyrrolo[2,1-C:2′,1′-L][1]Oxa[4,7,10,13]Tetraazacyclohexadecin-17-Yl)Propanamide] | – | – | – | – | 100 µM | – | – | – | – | 0.1 µM (≈ 0.0826 µg/mL) | 0.05 µM (≈ 0.0413 µg/mL) | 0.01 µM (≈ 0.00826 µg/mL) | 0.02 µM (≈ 0.0165 µg/mL) | 0.05 µM (≈ 0.0413 µg/mL) | 0.01 µM (≈ 0.00826 µg/mL) |
